Results published in PubChem BioAssay (NCI).
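96-well plates; 48 h exposure; 5 concentrations. Endpoints by linear interpolation between flanking doses. Not reached: highest tested concentration assigned. GI50 is the concentration that inhibits growth by half. Definition used: TGI = concentration required for complete inhibition of growth.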

Legend:
Experiment in all cases: DTP human tumour cell line panel, 48 h
786-0 renal = system: 786-0 renal
A498 renal = system: A498 renal
A549 NSCLC = system: A549 NSCLC
ACHN renal = system: ACHN renal
BT-549 breast = system: BT-549 breast
CAKI-1 renal = system: CAKI-1 renal
CCRF-CEM leukemia = system: CCRF-CEM leukemia
COLO 205 colon = system: COLO 205 colon
DU-145 prostate = system: DU-145 prostate
EKVX NSCLC = system: EKVX NSCLC
HCC-2998 colon = system: HCC-2998 colon
HCT-116 colon = system: HCT-116 colon
HCT-15 colon = system: HCT-15 colon
HL-60(TB) leukemia = system: HL-60(TB) leukemia
HOP-62 NSCLC = system: HOP-62 NSCLC
HOP-92 NSCLC = system: HOP-92 NSCLC
HS 578T breast = system: HS 578T breast
HT29 colon = system: HT29 colon
IGROV1 ovarian = system: IGROV1 ovarian
K-562 leukemia = system: K-562 leukemia
KM12 colon = system: KM12 colon
LOX IMVI melanoma = system: LOX IMVI melanoma
M14 melanoma = system: M14 melanoma
MALME-3M melanoma = system: MALME-3M melanoma
MCF7 breast = system: MCF7 breast
MDA-MB-231 breast = system: MDA-MB-231 breast
MOLT-4 leukemia = system: MOLT-4 leukemia
NCI-H226 lung = system: NCI-H226 lung
NCI-H23 lung = system: NCI-H23 lung
NCI-H460 lung = system: NCI-H460 lung
NCI-H522 lung = system: NCI-H522 lung
NCI/ADR-RES ovarian = system: NCI/ADR-RES ovarian
OVCAR-3 ovarian = system: OVCAR-3 ovarian
OVCAR-4 ovarian = system: OVCAR-4 ovarian
OVCAR-5 ovarian = system: OVCAR-5 ovarian
OVCAR-8 ovarian = system: OVCAR-8 ovarian
PC-3 prostate = system: PC-3 prostate
RPMI-8226 leukemia = system: RPMI-8226 leukemia
RXF 393 renal = system: RXF 393 renal
SF-268 CNS = system: SF-268 CNS
SF-295 CNS = system: SF-295 CNS
SF-539 CNS = system: SF-539 CNS
SK-MEL-2 melanoma = system: SK-MEL-2 melanoma
SK-MEL-5 melanoma = system: SK-MEL-5 melanoma
SK-OV-3 ovarian = system: SK-OV-3 ovarian
SN12C renal = system: SN12C renal
SNB-19 CNS = system: SNB-19 CNS
SNB-75 CNS = system: SNB-75 CNS
SR leukemia = system: SR leukemia
SW-620 colon = system: SW-620 colon
T-47D breast = system: T-47D breast
TK-10 renal = system: TK-10 renal
U251 CNS = system: U251 CNS
UACC-257 melanoma = system: UACC-257 melanoma
UACC-62 melanoma = system: UACC-62 melanoma
UO-31 renal = system: UO-31 renal
MDA-MB-435 = system: MDA-MB-435
SK-MEL-28 melanoma = system: SK-MEL-28 melanoma

## CCO/C=N/C1=C(C#N)C(c2ccc(OC)cc2)c2sc3c(F)cccc3c2O1 (stereo not given)
786-0 renal
  GI50: 4.85 µM
  TGI: 68.9 µM
A498 renal
  GI50: 2.18 µM
  TGI: 7.8 µM
A549 NSCLC
  GI50: 2.22 µM
  TGI: > 100 µM
ACHN renal
  GI50: 5.57 µM
  TGI: > 100 µM
BT-549 breast
  GI50: 7.17 µM
  TGI: > 100 µM
CAKI-1 renal
  GI50: 3.3 µM
  TGI: > 100 µM
CCRF-CEM leukemia
  GI50: 2.69 µM
  TGI: 28.7 µM
COLO 205 colon
  GI50: 3.33 µM
  TGI: 15 µM
DU-145 prostate
  GI50: 3.57 µM
  TGI: 57.2 µM
EKVX NSCLC
  GI50: 7.12 µM
  TGI: > 100 µM
HCC-2998 colon
  GI50: 5.12 µM
  TGI: 32.6 µM
HCT-116 colon
  GI50: 2.02 µM
  TGI: > 100 µM
HCT-15 colon
  GI50: 1.67 µM
  TGI: 26.7 µM
HL-60(TB) leukemia
  GI50: 2 µM
  TGI: 5.5 µM
HOP-62 NSCLC
  GI50: 2.9 µM
  TGI: 47.5 µM
HOP-92 NSCLC
  GI50: 3.21 µM
  TGI: 43.6 µM
HS 578T breast
  GI50: 2.11 µM
  TGI: 7.93 µM
HT29 colon
  GI50: 3.23 µM
  TGI: 16.6 µM
IGROV1 ovarian
  GI50: 2.73 µM
  TGI: > 100 µM
K-562 leukemia
  GI50: 0.537 µM
  TGI: > 100 µM
KM12 colon
  GI50: 2.52 µM
  TGI: 72 µM
LOX IMVI melanoma
  GI50: 3.08 µM
  TGI: 12.4 µM
M14 melanoma
  GI50: 1.7 µM
  TGI: > 100 µM
MALME-3M melanoma
  GI50: 11.3 µM
  TGI: > 100 µM
MCF7 breast
  GI50: 1.44 µM
  TGI: 50.9 µM
MDA-MB-231 breast
  GI50: 3.87 µM
  TGI: 30.7 µM
MOLT-4 leukemia
  GI50: 2.8 µM
  TGI: 13.5 µM
NCI-H226 lung
  GI50: 2.89 µM
  TGI: 42.1 µM
NCI-H23 lung
  GI50: 3.29 µM
  TGI: > 100 µM
NCI-H460 lung
  GI50: 2.82 µM
  TGI: 13.5 µM
NCI-H522 lung
  GI50: 0.569 µM
  TGI: 3.84 µM
NCI/ADR-RES ovarian
  GI50: 1.25 µM
  TGI: 5.03 µM
OVCAR-3 ovarian
  GI50: 2.2 µM
  TGI: 9.7 µM
OVCAR-4 ovarian
  GI50: 5.59 µM
  TGI: > 100 µM
OVCAR-5 ovarian
  GI50: 6.8 µM
  TGI: 76.3 µM
OVCAR-8 ovarian
  GI50: 4.06 µM
  TGI: > 100 µM
PC-3 prostate
  GI50: 2.86 µM
  TGI: > 100 µM
RPMI-8226 leukemia
  GI50: 3.26 µM
  TGI: 16.3 µM
RXF 393 renal
  GI50: 2 µM
  TGI: 16.5 µM
SF-268 CNS
  GI50: 4.31 µM
  TGI: > 100 µM
SF-295 CNS
  GI50: 4.44 µM
  TGI: 62.3 µM
SF-539 CNS
  GI50: 2.18 µM
  TGI: 6.28 µM
SK-MEL-2 melanoma
  GI50: 3.8 µM
  TGI: 78.3 µM
SK-MEL-5 melanoma
  GI50: 3.24 µM
  TGI: 15.7 µM
SK-OV-3 ovarian
  GI50: 4.67 µM
  TGI: > 100 µM
SN12C renal
  GI50: 3.75 µM
  TGI: 55 µM
SNB-19 CNS
  GI50: 4.02 µM
  TGI: > 100 µM
SNB-75 CNS
  GI50: 1.66 µM
  TGI: 5.67 µM
SR leukemia
  GI50: 1.04 µM
  TGI: 17.5 µM
SW-620 colon
  GI50: 2.2 µM
  TGI: > 100 µM
T-47D breast
  GI50: 3.51 µM
  TGI: > 100 µM
TK-10 renal
  GI50: 6.74 µM
  TGI: > 100 µM
U251 CNS
  GI50: 3.48 µM
  TGI: 19.7 µM
UACC-257 melanoma
  GI50: 14.8 µM
  TGI: > 100 µM
UACC-62 melanoma
  GI50: 1.84 µM
  TGI: > 100 µM
UO-31 renal
  GI50: 4.03 µM
  TGI: > 100 µM

## Clc1ccc(OCc2nn3c(CCCCc4nnc5sc(COc6ccc(Cl)cc6Cl)nn45)nnc3s2)c(Cl)c1
786-0 renal
  GI50: 65.4 µM
  TGI: > 100 µM
A549 NSCLC
  GI50: 82.6 µM
  TGI: > 100 µM
ACHN renal
  GI50: 93.6 µM
  TGI: > 100 µM
BT-549 breast
  GI50: 54.2 µM
  TGI: > 100 µM
CAKI-1 renal
  GI50: 40.1 µM
  TGI: > 100 µM
CCRF-CEM leukemia
  GI50: 51 µM
  TGI: > 100 µM
COLO 205 colon
  GI50: 52 µM
  TGI: > 100 µM
DU-145 prostate
  GI50: 71.9 µM
  TGI: > 100 µM
EKVX NSCLC
  GI50: 57.5 µM
  TGI: > 100 µM
HCC-2998 colon
  GI50: 35.3 µM
  TGI: > 100 µM
HCT-116 colon
  GI50: 18.1 µM
  TGI: 63.1 µM
HCT-15 colon
  GI50: > 100 µM
  TGI: > 100 µM
HL-60(TB) leukemia
  GI50: > 100 µM
  TGI: > 100 µM
HOP-62 NSCLC
  GI50: 60.1 µM
  TGI: > 100 µM
HOP-92 NSCLC
  GI50: 50.3 µM
  TGI: > 100 µM
HS 578T breast
  GI50: 36.7 µM
  TGI: > 100 µM
HT29 colon
  GI50: > 100 µM
  TGI: > 100 µM
IGROV1 ovarian
  GI50: 83 µM
  TGI: > 100 µM
K-562 leukemia
  GI50: 22.7 µM
  TGI: 61 µM
KM12 colon
  GI50: 31.9 µM
  TGI: > 100 µM
LOX IMVI melanoma
  GI50: 67.1 µM
  TGI: > 100 µM
MCF7 breast
  GI50: 48.1 µM
  TGI: > 100 µM
MDA-MB-231 breast
  GI50: 44.3 µM
  TGI: > 100 µM
MDA-MB-435
  GI50: 49.6 µM
  TGI: > 100 µM
MOLT-4 leukemia
  GI50: 18.4 µM
  TGI: 48.5 µM
NCI-H226 lung
  GI50: 38 µM
  TGI: > 100 µM
NCI-H23 lung
  GI50: 37.3 µM
  TGI: > 100 µM
NCI-H460 lung
  GI50: 71.9 µM
  TGI: > 100 µM
NCI-H522 lung
  GI50: 45.2 µM
  TGI: > 100 µM
NCI/ADR-RES ovarian
  GI50: 35.8 µM
  TGI: > 100 µM
OVCAR-3 ovarian
  GI50: 30.4 µM
  TGI: 74.4 µM
OVCAR-4 ovarian
  GI50: 50.3 µM
  TGI: > 100 µM
OVCAR-5 ovarian
  GI50: > 100 µM
  TGI: > 100 µM
OVCAR-8 ovarian
  GI50: 46.2 µM
  TGI: > 100 µM
PC-3 prostate
  GI50: 47.8 µM
  TGI: > 100 µM
RPMI-8226 leukemia
  GI50: 25.4 µM
  TGI: 59.6 µM
RXF 393 renal
  GI50: 83.9 µM
  TGI: > 100 µM
SF-268 CNS
  GI50: 73.1 µM
  TGI: > 100 µM
SF-295 CNS
  GI50: 40.6 µM
  TGI: > 100 µM
SF-539 CNS
  GI50: 55.8 µM
  TGI: > 100 µM
SK-MEL-2 melanoma
  GI50: > 100 µM
  TGI: > 100 µM
SK-MEL-28 melanoma
  GI50: > 100 µM
  TGI: > 100 µM
SK-MEL-5 melanoma
  GI50: 42 µM
  TGI: > 100 µM
SK-OV-3 ovarian
  GI50: > 100 µM
  TGI: > 100 µM
SN12C renal
  GI50: 94.3 µM
  TGI: > 100 µM
SNB-19 CNS
  GI50: 76.8 µM
  TGI: > 100 µM
SNB-75 CNS
  GI50: 33.3 µM
  TGI: > 100 µM
SW-620 colon
  GI50: > 100 µM
  TGI: > 100 µM
T-47D breast
  GI50: 43.9 µM
  TGI: > 100 µM
TK-10 renal
  GI50: 32.6 µM
  TGI: 92 µM
U251 CNS
  GI50: 29 µM
  TGI: 89.7 µM
UACC-257 melanoma
  GI50: 72.7 µM
  TGI: > 100 µM
UACC-62 melanoma
  GI50: 69.4 µM
  TGI: > 100 µM
UO-31 renal
  GI50: > 100 µM
  TGI: > 100 µM
